{"source": "patent US20160324992A1", "about": "“IDENTIFICATION AND TREATMENT OF VULNERABLE PLAQUES” (OTTAWA HEART INSTITUTE RESEARCH CORPORATION, priority 2015, published 2016)", "key": {"[1]": {"test_system": "reactive oxygen species (ROS)", "conditions": "BMDMs pre-incubated with 50 μM DPI, oxLDL or oxLDL+zVAD.fmk 3 h", "protocol": "Measurement of Reactive Oxygen Species (ROS). BMDMs were pre-incubated with DPI for 30 minutes followed by the cell permeant reagent 2′, 7′-dichloroflurescin diacetate (DCFDA) fluorescent dye for 1 h. Cells were then treated with oxLDL or oxLDL+zVAD.fmk and fluorescence was measured at 3 h and 24 h as per manufacturers' instructions (Abcam, ab113851)."}, "MLKL": {"test_system": "MLKL", "conditions": "BMDMs, pre-treatment with 50 μM DPI", "protocol": "(§1) RNA isolation and quantitative real-time PCR. BMDMs were treated with control media with or without oxLDL or oxLDL+zVAD.fmk for the indicated time points with or without 1 h pre-treatment with 50 μM DPI. Alternatively, BMDMs were polarized to M0, M1 or M2 prior to RNA isolation, as described above. Total RNA was isolated using TRIzol reagent (Invitrogen) as per manufacturer's instructions and cDNA was synthesized using iScript Reverse Transcription kit (BioRad™). Quantitative real-time PCR was performed in triplicate using either the Sso Advanced Universal SYBR Green Supermix (Biorad) or Taqman™ Gene Expression Assay and mRNA level of target genes was normalized to HPRT or β-actin house keeping genes.\nas §1, with “uM” for “μM”, “Total RNA was isolated using TRIzol reagent (Invitrogen) as per manufacturer's instructions and cDNA was synthesized using iScript Reverse Transcription kit (BioRad™).” left out, “Taqman®” for “Taqman™”"}, "RIP3": {"test_system": "RIP3", "conditions": "BMDMs, pre-treatment with 50 μM DPI", "protocol": "as §1\nas §1, with “uM” for “μM”, “Total RNA was isolated using TRIzol reagent (Invitrogen) as per manufacturer's instructions and cDNA was synthesized using iScript Reverse Transcription kit (BioRad™).” left out, “Taqman®” for “Taqman™”"}, "human MLKL promoter": {"test_system": "human MLKL promoter", "conditions": "RAW macrophages, 50 uM DPI pre-treatment, oxLDL 6 or 24 h", "protocol": "(§2) Promoter Luciferase Assay. Luciferase reporter constructs containing the human MLKL and RIP3 promoters were purchased from SwitchGear Genomics (Carlsbad, CA). RAW264.7 (ATCC) macrophages were plated in 24-well plates in 10% FBS DMEM and transfected using Lipofectamine 2000 (Life Technologies) with MLKL-promoter or RIP3-promoter plasmids (renilla-based luciferase reporter) together with pGL3 basic (firefly-based reporter, Promega) to normalize for transfection efficiency. Twenty-four hours after transfection, cells were treated with or without 100 μg/ml oxLDL as above, for an additional 24 hours. Cells were harvested in lx passive lysis buffer and luciferase measured using the Dual Luciferase Assay (Promega) according to manufacturer's instructions. All experiments were performed in quadruplicate technical replicates at least 3 times.\n(§3) Promoter Luciferase Assay. Luciferase reporter constructs containing the human MLKL and RIP3 promoters were purchased from SwitchGear Genomics (Carlsbad, CA). […] Cells were harvested in 1× passive lysis buffer and luciferase measured using the Dual Luciferase Assay (Promega) according to manufacturer's instructions. […]"}, "human RIP3 promoter": {"test_system": "human RIP3 promoter", "conditions": "RAW macrophages, 50 uM DPI pre-treatment, oxLDL 6 or 24 h", "protocol": "as §2, §3"}, "PGAM5": {"test_system": "PGAM5", "conditions": "macrophages, DPI"}}, "data": [{"smiles": "c1ccc2c(c1)[I+]c1ccccc1-2", "note": "[DPI, diphenyleneiodonium]", "values": [{"measurement": "oxLDL-induced production of ROS (in words)", "setting": "[1]", "value": "inhibited"}, {"measurement": "induction of MLKL mRNA expression by oxLDL and oxLDL+zVAD.fmk (in words)", "setting": "MLKL", "value": "inhibited"}, {"measurement": "induction of RIP3 mRNA expression by oxLDL and oxLDL+zVAD.fmk (in words)", "setting": "RIP3", "value": "inhibited"}, {"measurement": "oxLDL-induced MLKL promoter activity (in words)", "setting": "human MLKL promoter", "value": "significantly blunted"}, {"measurement": "oxLDL-induced RIP3 promoter activity (in words)", "setting": "human RIP3 promoter", "value": "significantly blunted"}, {"measurement": "oxLDL-induced PGAM5 expression (in words)", "setting": "PGAM5", "value": "similarly inhibited"}]}]}
